# pIC50: −log10 of the molar value. Like-named read-outs stand apart in the source and are kept apart here.
# Tests used:
# human DNMT3a/3l = human DNMT3a/3l (Homo sapiens (Human), UniProt Q9Y6K1); experiment: DNMT3a/3l breaklight assay; type: biochemical
# Procedure: DNMT3a/3l Breakliqht Assay
# DNMT3a/3l breaklight in vitro assays were conducted in a total volume of 50 μl in a standard 384 well format, using black non-binding surface microplates (Corning #3575). […] Negative control wells used 5 μl of DNMT3a/3l and 5 μl of oligonucleotide but also included 200 μM SAH. All reagents were made up in 1× assay buffer (20 mM Tris pH 7.4, 100 mM NaCl, 1.5 mM EDTA, 0.1 mM MgCl2, 1 mM CHAPS and 1 mM DTT). The reaction was incubated at 37° C. for 90 min and then stopped with the addition of 40 μl detection reagent. Detection reagent, made up in 1× Gla assay buffer (20 mM Tris pH 8.0, 80 mM NaCl, 0.75 mM MgCl2, 0.01% Triton X100 and 1 mM DTT) has a final concentration of 200 μM SAH (Sigma #A9384) and 0.0008 units/μl Gla1 restriction endonuclease (Sibenzyme #E494). Following addition of the detection reagent the plate was incubated in the dark at room temperature for 5 hr. Fluorescence intensity was then measured on the PHERAstar FS (BMG Labtech) at Ex 485 nm and Em 520 nm, with a gain of 400 and an integration time of 100 ms.
# DNMT1 = DNMT1 (Homo sapiens, UniProt P26358); experiment: DNMT1 biochemical activity, breaklight assay and/or SPA assay
# DNMT1, sequence (P26358 whole entry, looked up): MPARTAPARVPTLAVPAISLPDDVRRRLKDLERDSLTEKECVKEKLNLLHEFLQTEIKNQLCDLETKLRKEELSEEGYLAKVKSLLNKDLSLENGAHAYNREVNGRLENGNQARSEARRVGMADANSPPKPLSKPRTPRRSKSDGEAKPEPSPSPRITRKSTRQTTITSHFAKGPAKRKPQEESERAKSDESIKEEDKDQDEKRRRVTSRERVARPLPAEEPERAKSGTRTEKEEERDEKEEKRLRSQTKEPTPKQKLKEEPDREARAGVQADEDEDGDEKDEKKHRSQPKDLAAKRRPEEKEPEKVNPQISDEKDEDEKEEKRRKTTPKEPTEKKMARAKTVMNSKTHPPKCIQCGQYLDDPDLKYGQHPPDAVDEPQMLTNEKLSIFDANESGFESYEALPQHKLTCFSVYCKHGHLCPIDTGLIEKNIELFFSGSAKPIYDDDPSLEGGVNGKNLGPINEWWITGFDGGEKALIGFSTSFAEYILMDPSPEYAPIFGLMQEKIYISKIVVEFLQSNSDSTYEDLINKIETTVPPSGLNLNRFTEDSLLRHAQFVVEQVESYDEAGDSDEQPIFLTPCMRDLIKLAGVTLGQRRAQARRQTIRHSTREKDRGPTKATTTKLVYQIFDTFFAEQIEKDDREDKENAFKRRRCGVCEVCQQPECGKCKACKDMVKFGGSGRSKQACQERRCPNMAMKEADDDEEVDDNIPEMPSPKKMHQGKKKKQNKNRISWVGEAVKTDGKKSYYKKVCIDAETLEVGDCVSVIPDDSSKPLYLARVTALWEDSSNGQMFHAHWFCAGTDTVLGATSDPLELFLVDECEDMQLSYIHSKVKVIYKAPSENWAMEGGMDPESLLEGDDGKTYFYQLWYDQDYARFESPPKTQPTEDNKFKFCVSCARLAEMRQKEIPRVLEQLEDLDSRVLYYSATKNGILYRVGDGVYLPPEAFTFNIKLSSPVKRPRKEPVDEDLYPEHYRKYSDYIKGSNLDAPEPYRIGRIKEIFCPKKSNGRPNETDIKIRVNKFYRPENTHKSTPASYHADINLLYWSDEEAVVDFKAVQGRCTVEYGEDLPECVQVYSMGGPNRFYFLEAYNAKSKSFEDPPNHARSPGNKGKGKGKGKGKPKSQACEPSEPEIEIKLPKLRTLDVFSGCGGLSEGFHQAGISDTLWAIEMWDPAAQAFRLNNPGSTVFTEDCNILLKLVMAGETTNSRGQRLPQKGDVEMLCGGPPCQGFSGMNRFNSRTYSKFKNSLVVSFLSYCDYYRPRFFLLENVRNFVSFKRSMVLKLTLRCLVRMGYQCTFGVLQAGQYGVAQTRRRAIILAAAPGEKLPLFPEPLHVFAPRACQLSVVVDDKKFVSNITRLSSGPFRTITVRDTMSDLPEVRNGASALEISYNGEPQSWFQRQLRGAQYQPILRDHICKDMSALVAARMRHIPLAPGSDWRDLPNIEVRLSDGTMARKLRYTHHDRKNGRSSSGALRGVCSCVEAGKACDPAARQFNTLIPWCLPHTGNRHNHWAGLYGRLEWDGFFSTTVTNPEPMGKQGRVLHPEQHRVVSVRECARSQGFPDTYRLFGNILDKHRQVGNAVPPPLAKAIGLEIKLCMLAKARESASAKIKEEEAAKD
# [1] = system: erythroid progenitor cells (EPCs); experiment: Fetal hemoglobin (HbF) ELISA in day 7 erythroid progenitor cells; type: cell-based, human; conditions: Homo sapiens, Erythroid progenitor cell, HbF ELISA, day 7 EPCs, 5 days; read-out: EPC ELISA (pEC50 category) (converted);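 also: for fetal hemoglobin induction normalized to vehicle-treated cells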
# Procedure, shortened: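 Day 7 EPCs from human bone marrow CD34+ cells were plated at 1,000 cells/well in media with 3 U/mL rhEPO. They were exposed to a 22-point dilution ([…]) for 5 days at 37 °C. Lysate HbF was measured by sandwich ELISA (OD450) and normalized to DMSO control wells.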
# DNMT3B = DNMT3B (Homo sapiens (Human), UniProt Q9UBC3); experiment: DNMT3B breaklight assay; type: biochemical
# [2] = read-out: DNMT3A Breaklight IC50
# [3] = binned activity in either the breaklight or the SPA assay, read-out: DNMT1 BioChemical (pIC50 category) (converted)
# [4] = read-out: DNMT3B Breaklight IC50
# [5] = binned activity in either the breaklight or the SPA assay
# [6] = repeated experimental runs, read-out: average IC50, DNMT3A breaklight assay
# [7] = repeated experimental runs, read-out: average IC50, DNMT3B breaklight assay
# [8] = breaklight assay and/or SPA assay, repeated experimental runs, read-out: average pIC50 against DNMT1 (converted)
# human DNMT3a/3l, sequence (Q9Y6K1 whole entry, looked up): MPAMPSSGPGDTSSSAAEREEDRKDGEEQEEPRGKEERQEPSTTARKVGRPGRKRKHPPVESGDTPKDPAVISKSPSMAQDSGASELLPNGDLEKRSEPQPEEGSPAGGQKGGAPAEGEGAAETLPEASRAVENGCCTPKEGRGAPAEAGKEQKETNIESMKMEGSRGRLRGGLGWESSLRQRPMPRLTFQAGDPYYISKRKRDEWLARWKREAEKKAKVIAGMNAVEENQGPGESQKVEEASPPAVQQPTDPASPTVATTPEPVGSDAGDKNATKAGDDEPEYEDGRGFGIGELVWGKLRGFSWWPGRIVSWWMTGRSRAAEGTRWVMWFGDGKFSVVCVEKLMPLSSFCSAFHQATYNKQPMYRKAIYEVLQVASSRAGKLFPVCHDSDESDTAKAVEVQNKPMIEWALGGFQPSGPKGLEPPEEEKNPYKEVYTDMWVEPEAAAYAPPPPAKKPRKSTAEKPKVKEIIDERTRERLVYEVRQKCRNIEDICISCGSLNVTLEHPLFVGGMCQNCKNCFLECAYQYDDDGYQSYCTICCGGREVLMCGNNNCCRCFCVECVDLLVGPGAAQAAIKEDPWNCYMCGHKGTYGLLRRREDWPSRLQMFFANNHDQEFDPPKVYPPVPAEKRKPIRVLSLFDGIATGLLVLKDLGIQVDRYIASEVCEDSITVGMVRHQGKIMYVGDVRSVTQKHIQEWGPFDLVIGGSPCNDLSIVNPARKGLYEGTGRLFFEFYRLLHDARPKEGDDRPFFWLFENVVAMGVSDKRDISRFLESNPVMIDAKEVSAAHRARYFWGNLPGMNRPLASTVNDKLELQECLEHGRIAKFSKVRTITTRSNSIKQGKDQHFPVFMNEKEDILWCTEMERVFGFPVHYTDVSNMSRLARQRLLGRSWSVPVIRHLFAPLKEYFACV
# human DNMT3a/3l, sequence (Q9UJW3 whole entry partner, looked up): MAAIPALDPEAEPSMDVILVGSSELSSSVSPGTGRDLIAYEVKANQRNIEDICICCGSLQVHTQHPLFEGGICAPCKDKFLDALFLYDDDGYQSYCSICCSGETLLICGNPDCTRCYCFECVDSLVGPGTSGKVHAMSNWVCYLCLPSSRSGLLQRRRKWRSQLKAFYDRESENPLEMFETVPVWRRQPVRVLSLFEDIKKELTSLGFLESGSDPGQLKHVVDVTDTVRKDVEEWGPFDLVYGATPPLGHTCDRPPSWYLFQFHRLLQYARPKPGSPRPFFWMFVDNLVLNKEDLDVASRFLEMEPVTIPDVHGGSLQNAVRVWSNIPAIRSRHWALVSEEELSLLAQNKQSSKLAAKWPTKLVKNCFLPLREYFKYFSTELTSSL
SMILES,pIC50 (human DNMT3a/3l; [2]),IC50 (DNMT1; [3]) [nM],EC50 [1] [nM],pIC50 (DNMT3B; [4]),DNMT1 BioChemical (pIC50 category) (DNMT1; [5]),"average pIC50 against DNMT1 (DNMT1; breaklight assay and/or SPA assay, repeated experimental runs)",pIC50 (human DNMT3a/3l; [6]),pIC50 (DNMT3B; [7]),IC50 (DNMT1; [8]) [nM]
"CCc1c(C#N)c(N)nc(S[C@@H](C(N)=O)c2ccccc2)c1C#N [Example 2, (R)-[(6-amino-3,5-dicyano-4-ethylpyridin-2-yl)sulfanyl]-2-phenylacetamide]",< 3.30,316 to 1000,> 31600,< 3.30,–,–,–,–,–
"CCc1c(C#N)c(NC)nc(SC(C(N)=O)c2ccccc2)c1C#N (stereo not shown) [Example 52, 2-((3,5-Dicyano-4-ethyl-6-(methylamino)pyridin-2-yl)thio)-2-phenylacetamide]",< 3.30,316 to 1000,1000 to 31600,< 3.30,–,–,< 3.30,< 3.30,–
"CN(C)c1nc(SC(C(N)=O)c2ccccc2)c(C#N)c(C2CC2)c1C#N (stereo not shown) [Example 127, 2-((3,5-Dicyano-4-cyclopropyl-6-(dimethylamino)pyridin-2-yl)thio)-2-phenylacetamide]",< 3.30,–,316 to 1000,< 3.30,D (Category D: ≥6.5),–,–,–,–
"CCc1c(C#N)c(SC(C(N)=O)c2ccccc2)nc(N2CCC(N3CCNC3=O)CC2)c1C#N (stereo not shown) [Example 47, 2-((3,5-Dicyano-4-ethyl-6-(4-(2-oxoimidazolidin-1-yl)piperidin-1-yl)pyridin-2-yl)thio)-2-phenylacetamide]",< 3.30,316 to 1000,316 to 1000,< 3.30,–,–,< 3.30,< 3.30,–
"CCc1c(C#N)c(SC(C(N)=O)c2ccccc2)nc(N(C)CCOC)c1C#N (stereo not shown) [Example 53, 2-((3,5-Dicyano-4-ethyl-6-((2-methoxyethyl)(methyl)amino)pyridin-2-yl)thio)-2-phenylacetamide]",< 3.30,1000 to 31600,1000 to 31600,< 3.30,–,–,–,–,–
"N#Cc1c(N)nc(SC(C(N)=O)c2ccccc2)c(C#N)c1C1CC1 (stereo not shown) [Example 51, 2-[(6-amino-3,5-dicyano-4-cyclopropyl-2-pyridyl)sulfanyl]-2-phenyl-acetamide]",< 3.30,316 to 1000,> 31600,< 3.30,–,–,–,–,–
"CCc1c(C#N)c(N)nc(SC(C(N)=O)c2ccccc2)c1C#N (stereo not shown) [Example 1, 2-[(6-amino-3,5-dicyano-4-ethylpyridin-2-yl)sulfanyl]-2-phenylacetamide]",3.38,1000 to 31600,> 31600,< 3.30,–,–,–,–,–
"CCc1c(C#N)c(SC(C(N)=O)c2ccc(Cl)cc2)nc(N(C)C)c1C#N (stereo not shown) [Example 128, 2-(4-Chlorophenyl)-2-((3,5-dicyano-6-(dimethylamino)-4-ethylpyridin-2-yl)thio)acetamide]",< 3.30,316 to 1000,316 to 1000,< 3.30,–,–,–,–,–
"CCc1c(C#N)c(SC(C(N)=O)c2ccccc2)nc(N2CCNC(=O)C2)c1C#N (stereo not shown) [Example 50, 2-((3,5-Dicyano-4-ethyl-6-(3-oxopiperazin-1-yl)pyridin-2-yl)thio)-2-phenylacetamide]",< 3.30,316 to 1000,< 316,< 3.30,–,–,–,–,–

# Now from value to compound:
pIC50 (human DNMT3a/3l; [2]),IC50 (DNMT1; [3]) [nM],EC50 [1] [nM],pIC50 (DNMT3B; [4]),DNMT1 BioChemical (pIC50 category) (DNMT1; [5]),"average pIC50 against DNMT1 (DNMT1; breaklight assay and/or SPA assay, repeated experimental runs)",pIC50 (human DNMT3a/3l; [6]),pIC50 (DNMT3B; [7]),IC50 (DNMT1; [8]) [nM],SMILES
< 3.30,–,< 316,3.91,D (Category D: ≥6.5),–,–,–,–,"CCc1c(C#N)c(SC(C(N)=O)c2ccccc2)nc(N2CCC3(CCCN(C)C3)CC2)c1C#N (stereo not shown) [Example 118, 2-((3,5-Dicyano-4-ethyl-6-(2-methyl-2,9-diazaspiro[5.5]undecan-9-yl)pyridin-2-yl)thio)-2-phenylacetamide]"
< 3.30,316 to 1000,316 to 1000,< 3.30,–,–,–,–,–,"CCc1c(C#N)c(SC(C(N)=O)c2ccccc2)nc(N2CCC(=O)CC2)c1C#N (stereo not shown) [Example 59, 2-((3,5-dicyano-4-ethyl-6-(4-oxopiperidin-1-yl)pyridin-2-yl)thio)-2-phenylacetamide]"
< 3.30,–,< 316,3.42,D (Category D: ≥6.5),> 6.5,–,–,–,"CCc1c(C#N)c(SC(C(N)=O)c2ccccc2)nc(N2CCC(C)(N)CC2)c1C#N (stereo not shown) [Example 136, 2-((6-(4-Amino-4-methylpiperidin-1-yl)-3,5-dicyano-4-ethylpyridin-2-yl)thio)-2-phenylacetamide]"
< 3.30,–,< 316,< 3.30,D (Category D: ≥6.5),–,< 3.30,< 3.30,–,"CCc1c(C#N)c(SC(C(N)=O)c2ccccc2)nc(N2CCCN(CC)CC2)c1C#N (stereo not shown) [Example 7, 2-{[3,5-dicyano-4-ethyl-6-(4-ethyl-1,4-diazepan-1-yl)pyridin-2-yl]sulfanyl}-2-phenylacetamide]"
< 3.30,–,< 316,< 3.30,D (Category D: ≥6.5),–,–,–,–,"CCc1c(C#N)c(SC(C(N)=O)c2ccccc2)nc(N2CCCN(CC(C)O)CC2)c1C#N (stereo not shown) [Example 107, 2-((3,5-dicyano-4-ethyl-6-(4-(2-hydroxypropyl)-1,4-diazepan-1-yl)pyridin-2-yl)thio)-2-phenylacetamide]"
< 3.30,316 to 1000,1000 to 31600,< 3.30,–,–,–,–,≥ 1000,"CCc1c(C#N)c(SC(C(N)=O)c2ccccc2)nc(N2CCN(CCO)CC2)c1C#N (stereo not shown) [Example 129, 2-((3,5-Dicyano-4-ethyl-6-(4-(2-hydroxyethyl)piperazin-1-yl)pyridin-2-yl)thio)-2-phenylacetamide]"
< 3.30,–,< 316,< 3.30,D (Category D: ≥6.5),–,–,–,–,"CCc1c(C#N)c(SC(C(N)=O)c2ccccc2)nc(N2CCCN(CCOC)CC2)c1C#N (stereo not shown) [Example 106, 2-({3,5-Dicyano-4-ethyl-6-[4-(2-methoxyethyl)-1,4-diazepan-1-yl]pyridin-2-yl}sulfanyl)-2-phenylacetamide]"
< 3.30,–,< 316,< 3.30,D (Category D: ≥6.5),–,–,–,–,"CCc1c(C#N)c(SC(C(N)=O)c2ccccc2)nc(N2CCCNCC2)c1C#N (stereo not shown) [Example 112, 2-{[3,5-Dicyano-6-(1,4-diazepan-1-yl)-4-ethylpyridin-2-yl]sulfanyl}-2-phenylacetamide]"
< 3.30,–,< 316,< 3.30,D (Category D: ≥6.5),–,< 3.30,< 3.30,–,"CCCN1CCCN(c2nc(SC(C(N)=O)c3ccccc3)c(C#N)c(CC)c2C#N)CC1 (stereo not shown) [Example 6, 2-((3,5-dicyano-4-ethyl-6-(4-propyl-1,4-diazepan-1-yl)pyridin-2-yl)thio)-2-phenylacetamide]"
< 3.30,316 to 1000,< 316,< 3.30,–,–,–,–,316 to 1000,"CCc1c(C#N)c(SC(C(N)=O)c2ccccc2)nc(N2CCN(C(C)=O)CC2)c1C#N (stereo not shown) [Example 126, 2-((6-(4-Acetylpiperazin-1-yl)-3,5-dicyano-4-ethylpyridin-2-yl)thio)-2-phenylacetamide]"
< 3.30,–,316 to 1000,< 3.30,D (Category D: ≥6.5),–,–,–,–,"CCc1c(C#N)c(SC(C(N)=O)c2ccccc2)nc(N2CC[C@H](O)C2)c1C#N (stereo partly drawn) [Example 49, 2-((3,5-Dicyano-4-ethyl-6-((S)-3-hydroxypyrrolidin-1-yl)pyridin-2-yl)thio)-2-phenylacetamide]"

# Source: patent US10975056B2 (GlaxoSmithKline Intellectual Property Development Limited, priority 2016, dated 2021)
